Literature values as cited in US5084277A, “Vaginal progesterone tablet” (priority 1990, dated 1992).

Assays:
[1] = not given; remark: listed apart in the source

SMILES: CC(=O)[C@H]1CC[C@H]2[C@@H]3CCC4=CC(=O)CC[C@]4(C)[C@H]3CC[C@]12C [progesterone, pregn-4-ene-3,20-dione]
- Plasma half-life of endogenous progesterone (endogenous): a few minutes
- Storage of progesterone in body fat (in vivo): A small amount of progesterone is stored in body fat
- Time within which all exogenous progesterone is metabolized (suggested by Myers et al.): ≤ 24 h
- Tolerability of parenteral administration ([1]; deep intramuscular injections): often very painful and irritating at the site of injection
- Serum levels after oral administration ([1]; in vivo, po): significant but highly variable serum levels
- Absorption by the rectal route ([1]; rectal): highly variable
